Columns and labels:
[1] = Topical podophyllotoxin on vaginal peaks in patients with post-hysterectomic pain; type: in vivo, human
Procedure: In accordance with the invention podophyllotoxin can also be used for intense tenderness to touch and palpation in the upper vaginal corners with post-hysterectomic pain, sometimes also with bleed in. After the rinse with acetum the vaginal corners are treated with podophyllotoxin, and vaginal ointment can be applied on the treated areas if necessary. The treatment can be repeated at least three times if necessary, at intervals of either one day or one month.
At the end of about three years the patient returned to the gynecologic outpatient clinic and complained about a strong continual pain in the lower part of the abdomen and a pushing feeling in the rectum. […] The vaginal peaks were treated locally with podophyllotoxin three times at two days' intervals. Especially the right corner was very tender to palpation. After the third treatment there was no more pain.
(§1) The patient hade undergone hysterectomy, suffered from pain, a small muscular tumour and adhesions after endometriosis. The patient had suffered from incontinence for about a year. There had been no distinct inflammations. […] They were pencilled. Nevertheless, after about six months the patient returned to the clinic because of pain in the lower abdomen, the back and a sting in the urinary bladder. The sore vaginal peaks were pencilled with podophyllotoxin once more.
Post-hysterectomic pain was examined in 26 patients. The vagina was first washed with a 3% acetum solution and then the vaginal peaks were pencilled with podophyllotoxin. A vaginal ointment was used occasionally on the pencilled areas. The treatment was repeated 1 to 3 times at about one month's intervals.

[2] = Topical podophyllotoxin on sore vestibular (Bartholin's) glands in vulvodynia patients; type: in vivo, human
Description: In the treatment, the vagina is first washed with a 3% acetum solution. The vulva, especially Batrholin's glands are examined by means of colposcopy. A second object is a slightly uneven, netlike area located obliquely behind, at the sides of the outer mouth of the urethra. Sometimes small hyperemetic cavities, small vestibular glands are found in the vulvar region, which are not sore in a healthy person. In vulvodynia they are typically very tender to touch and red, ligulate and with embossed edges. In vulvodynia Bartholin's gland orifices are sometimes closed. These points often start bleeding at palpation.
In accordance with the invention, the sore glands are pencilled with podophyllotoxin. Any commonly used vaginal ointment is applied on the pencilled area. The treatment is repeated twice if necessary at an interval of about one month. The treatment is usually not effective at once, however, in the course of typically two weeks there is no more pain.
The gland orifices were pencilled with a 5% podophyllotoxin solution. The pain during intercourse disappeared at the end of a couple of weeks. After about two years the pain recurred. Podophyllotoxin was applied to the gland orifices anew. At the end of two months the lefthand, still tender gland orifice was pencilled once more.
The patient had undergone hysterectomy because of prolapse and extended cervix. However, the prolapse recurred (enterocele), and was resectioned from below. After the surgery the patient suffered from vaginal pain, which was stronger on the left side. There was no inflammation, the pain persisted. A gynecologist made repeated examinations, found nothing wrong and consulted a neurologist, who made the diagnosis inexplicable postoperative pain. […] Podophyllotoxin was applied twice at one month's interval and once more the following day.
as §1
A total of 151 patients were treated over a period of two years, and among these 75% had typical vulvodynia symptoms and the remainder atypical other symptoms, such as disorders of the urinary tracts, vaginal dryness, itching and recurrent candidosis. However, intense tenderness to touch of the vestibular glands was typical for all of the patients.
All of the patients were treated in the same way: first the vagina was washed with a 3% solution of acetum, the sore glands were treated with podophyllotoxin and vaginal ointment was applied on this. 46 patients were treated only once and 6 patients were treated 10 times, the patients were treated 2.6 times on the average.

For `COc1cc([C@@H]2c3cc4c(cc3[C@H](O)[C@H]3COC(=O)[C@H]23)OCO4)cc(OC)c1OC` [podophyllotoxin], the “pain after treatment of vaginal peaks” value ([1]; Example 2, same patient about three years later, vaginal peaks treated three times at two days' intervals, after the third treatment) was “no more pain”, the “incontinence after treatment of vaginal peaks” value ([1]; Example 3, control one month after last pencilling of vaginal peaks) was “disappeared” and the “patient's state at control after treatment of vaginal peaks” value ([1]; Example 3, sore vaginal peaks pencilled again about six months later, control one month later) was “completely recovered”. For the same compound, the “number of patients remaining free of symptoms during the control period” value ([1]; Example 5, 26 patients, vaginal peaks pencilled 1 to 3 times at about one month's intervals, maximum control period 9 months) was 17 patients, the “results of treatment (general statement)” value ([1]; upper vaginal corners treated, repeated at least three times if necessary) was “extremely good” and the “pain during intercourse after treatment” value ([2]; Example 1, one patient, Bartholin's gland orifices pencilled with 5% podophyllotoxin solution, at the end of a couple of weeks) was “disappeared”. The “pain after repeat treatment of recurrence” value ([2]; Example 1, recurrence after about two years, gland orifices pencilled anew, left orifice once more after two months, in the course of a couple of weeks) was “disappeared completely”, the symptoms after treatment ([2]; Example 2, one patient, postoperative vaginal pain, left Bartholin's gland and right side of urethra, applied twice at one month's interval and once more the following day) was “free of symptoms” and the “pain in the glands after treatment” value ([2]; Example 3, one patient, sore glands in the introitus pencilled once, after one month) was “no pain in the glands”. For the same compound, the “number of patients free of symptoms” value ([2]; Example 4, 151 patients treated, 2.6 times on average, about two weeks after the treatment) was “about one hundred”, the “number of patients considered to have probably recovered” value ([2]; Example 4, 151 patients treated, follow-up maximum more than 5 years) was 40 patients and the “immediate effect on pain” value ([2]; directly after treatment, before relief in the course of a couple of weeks) was “increases the pain”. The “pain after treatment (general statement)” value ([2]; sore glands pencilled, repeated twice if necessary at about one month interval, in the course of typically two weeks) was “no more pain” and the “pain at small red cavities of the front part of the vulva” value ([2]; vestibulitis type condition) was “relieved”.

— patent publication US6362222B1, “Analgesic use of podophyllotoxin for treating pain conditions in female genital organs” (priority 1998, dated 2002)
